From the supplement of paper PMC10307832

Legend:
Experiment in all cases: relative viability (nuclei count vs DMSO), 5 days (fraction); higher = more cells survive
[1] = compound: CC1=C(C=C(C=C1)NC(=O)C2=CC(=CC=C2)C(C)(C)C#N)NC3=CC4=C(C=C3)N=CN(C4=O)C [AZ628] + C[C@]1(O)C[C@@H](c2nc(-c3ccc4ccc(-c5ccccc5)nc4c3)c3c(N)nccn32)C1 [Linsitinib] (partner 1 µM)
How it was run: (§1)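 Medians of duplicate plates are given as relative viability. That measure is the nuclei count in treated wells divided by the count in vehicle wells. Counts were taken on 4× images of lung cancer cell lines in 1536-well plates, 5 days after pin-tool dosing the day after seeding with one drug alone or a fixed anchor-drug dose plus five library-drug doses (not always all listed) in √10 steps.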

[2] = compound: C[As](C)SC[C@H](NC(=O)CC[C@H](N)C(=O)O)C(=O)NCC(=O)O [Darinaparsin] + COc1cccc2cc(-c3nc([C@H]4CC[C@H](C(=O)O)CC4)n4ncnc(N)c34)[nH]c12 [OSI-027] (partner 0.5 µM)
How it was run: as §1

[3] = compound: C[As](C)SC[C@H](NC(=O)CC[C@H](N)C(=O)O)C(=O)NCC(=O)O [Darinaparsin] + NC(=O)Nc1cc(-c2cccc(F)c2)sc1C(=O)N[C@H]1CCCNC1 [AZD7762] (partner 0.2 µM)
How it was run: as §1

[4] = compound: C[As](C)SC[C@H](NC(=O)CC[C@H](N)C(=O)O)C(=O)NCC(=O)O [Darinaparsin] + Nc1nc2[nH]cc(CCc3ccc(C(=O)N[C@@H](CCC(=O)O)C(=O)O)cc3)c2c(=O)[nH]1 [Pemetrexed] (partner 0.2 µM)
How it was run: as §1

| Cell Line | relative viability ([1]; first compound 0.08 µM) | relative viability ([1]; first compound 0.253 µM) | relative viability ([1]; first compound 0.8 µM) | relative viability ([1]; first compound 2.53 µM) | relative viability ([1]; first compound 8 µM) | relative viability ([2]; first compound 0.08 µM) | relative viability ([2]; first compound 0.8 µM) | relative viability ([2]; first compound 2.53 µM) | relative viability ([2]; first compound 8 µM) | relative viability ([3]; first compound 0.08 µM) | relative viability ([3]; first compound 0.8 µM) | relative viability ([3]; first compound 2.53 µM) | relative viability ([3]; first compound 8 µM) | relative viability ([4]; first compound 0.08 µM) | relative viability ([4]; first compound 0.8 µM) | relative viability ([4]; first compound 2.53 µM) | relative viability ([4]; first compound 8 µM) |
| --- | --- | --- | --- | --- | --- | --- | --- | --- | --- | --- | --- | --- | --- | --- | --- | --- | --- |
| NCI-H650 | 1.09 | 0.911 | 1.25 | 0.952 | 0.78 | 0.584 | 0.531 | 0.533 | 0.604 | 0.94 | 0.882 | 0.941 | 0.95 | 0.947 | 0.835 | 0.959 | 1.02 |
| NCI-H838 | 0.995 | 0.977 | 1.11 | 0.896 | 0.883 | 0.401 | 0.34 | 0.458 | 0.428 | 1.03 | 0.963 | 0.971 | 1.07 | 0.272 | 0.223 | 0.245 | 0.247 |
| NCI-H1355 | 0.846 | 0.93 | 0.765 | 0.806 | 0.655 | 0.432 | 0.352 | 0.34 | 0.372 | 0.933 | 0.72 | 0.568 | 0.828 | 1.16 | 1.08 | 0.906 | 1.07 |
| NCI-H1395 | 1.21 | 1.18 | 1.23 | 1.07 | 1.05 | 0.744 | 0.636 | 0.586 | 0.628 | 0.4 | 0.411 | 0.385 | 0.394 | 0.944 | 0.719 | 0.795 | 0.792 |
| NCI-H1437 | 0.966 | 0.846 | 0.958 | 0.779 | 0.848 | 0.955 | 0.897 | 0.935 | 1.01 | 1.2 | 1.2 | 1.03 | 1.26 | 0.34 | 0.371 | 0.301 | 0.329 |
| NCI-H1651 | 1.16 | 1.08 | 1.12 | 1.05 | 0.989 | 0.78 | 0.753 | 0.619 | 0.822 | 0.507 | 0.43 | 0.361 | 0.553 | 0.621 | 0.594 | 0.569 | 0.748 |
| NCI-H1666 | 0.809 | 0.57 | 0.551 | 0.753 | 0.553 | 0.926 | 0.827 | 0.847 | 0.982 | 0.706 | 0.897 | 0.915 | 0.873 | 0.91 | 0.854 | 0.984 | 0.955 |
| NCI-H1734 | 0.853 | 0.794 | 0.804 | 0.759 | 0.496 | 0.684 | 0.595 | 0.621 | 0.739 | 0.72 | 0.529 | 0.549 | 0.664 | 0.421 | 0.389 | 0.442 | 0.466 |
| NCI-H1755 | 0.993 | 0.956 | 0.941 | 0.937 | 0.883 | 0.725 | 0.691 | 0.686 | 0.841 | 0.595 | 0.428 | 0.735 | 0.475 | 0.552 | 0.389 | 0.411 | 0.656 |
| SW 900 | – | – | – | – | – | 0.851 | 0.547 | 0.72 | 0.756 | 0.644 | – | 0.549 | 0.6 | 0.402 | – | 0.481 | 0.517 |
